Measured values published in US20220315554A1, “COMPOUNDS COMPRISING A […] LIGAND AND USE THEREOF” (priority 2019, published 2022).
Numbered stars: 1 amine (or outer) side, 2 acyl side, 3 side chain; on linkers, the order of the positions; unused ones are H or OH. Bridge positions count the residues as written; N and C are the ends. Square brackets hold non-standard residues; d marks the D form. Peptide text beside a SMILES is read from it. * marks the point of attachment. X35 = O=C(O)CN(CCN(CCN(CC(=O)O)CC(=O)O)CC(=O)NCCCOCCOCCOCCCN*)CC(=O)O; DOTA = O=C(O)CN1CCN(CC(=O)O)CCN(CC(=O)*)CCN(CC(=O)O)CC1; mXylylene = c1cc(C[*:1])cc(C[*:2])c1; X25 = NCCSCc1cc(C[*:1])cc(C[*:2])c1; 2Thi = N[C@@H](Cc1cccs1)C(=O)O; Suc = O=C(CCC(=O)[*:2])[*:1]; Nle = CCCC[C@H](N)C(=O)O; Hexanoyl = CCCCCC(=O)*

How the values were obtained:
[1] = biological target: T1, FAP-expressing human WI-38 fibroblasts (Homo sapiens, UniProt Q12884); assay: Competitive FACS binding assay; details: pIC50 Category (FACS), competition with 3 nM Cy5-labeled compound, 4° C., 1 hour
T1 construct: FAP-expressing human WI-38 fibroblasts (ECACC) were cultured in EMEM; host or cells: WI-38 human fibroblasts
T1 sequence (Q12884 1-760): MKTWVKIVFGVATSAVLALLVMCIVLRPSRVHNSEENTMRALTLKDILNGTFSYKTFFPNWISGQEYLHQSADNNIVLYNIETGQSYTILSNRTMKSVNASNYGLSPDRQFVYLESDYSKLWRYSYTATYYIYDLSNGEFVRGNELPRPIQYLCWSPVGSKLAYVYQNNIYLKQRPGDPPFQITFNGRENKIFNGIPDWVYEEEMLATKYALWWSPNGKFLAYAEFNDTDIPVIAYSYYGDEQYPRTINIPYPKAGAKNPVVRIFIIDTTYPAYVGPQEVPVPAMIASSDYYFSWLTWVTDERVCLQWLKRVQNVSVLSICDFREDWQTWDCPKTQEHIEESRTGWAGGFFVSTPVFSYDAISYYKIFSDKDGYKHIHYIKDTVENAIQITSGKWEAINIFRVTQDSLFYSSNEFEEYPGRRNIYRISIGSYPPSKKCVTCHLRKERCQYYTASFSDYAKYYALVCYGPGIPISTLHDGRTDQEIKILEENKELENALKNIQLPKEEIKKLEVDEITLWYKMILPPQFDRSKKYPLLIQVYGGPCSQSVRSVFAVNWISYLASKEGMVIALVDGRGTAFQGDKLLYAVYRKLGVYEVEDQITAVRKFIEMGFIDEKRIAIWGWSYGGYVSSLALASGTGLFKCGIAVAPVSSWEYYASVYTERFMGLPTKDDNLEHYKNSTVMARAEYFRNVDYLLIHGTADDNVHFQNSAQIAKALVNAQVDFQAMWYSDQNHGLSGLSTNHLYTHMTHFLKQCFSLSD
Method: Cells were analyzed in an Attune NxT flow cytometer. […]

Human recombinant FAP = biological target: T2, Human recombinant FAP (Homo sapiens, UniProt Q12884); assay: FRET-based FAP protease activity assay; format: biochemical; set-up: purchased R&D systems 3715-SE; details: pIC50 Category (Activity), FRET substrate, 37° C.
T2 sequence (Q12884 1-760): T1 sequence (Q12884 1-760)

Compound	IC50 ([1]; WI-38 fibroblasts) [µM]	IC50 (Human recombinant FAP; recombinant human FAP) [µM]	IC50 [1] [µM]	IC50 (Human recombinant FAP) [µM]
CCCC[C@H](NC(=O)CC[C@H](NC(=O)C(CNCCN)CNCCN)C(=O)O)C(=O)N[C@H]1CSCc2cccc(c2)CSC[C@@H](C(=O)O)NC(=O)[C@H](Cc2ccccc2)NC(=O)[C@H](CCC(N)=O)NC(=O)[C@H]([C@@H](C)O)NC(=O)[C@@H]2CCCN2C(=O)[C@@H]2CCCN2C1=O [3BP-4244, N4Ac-gGlu-Nle-[Cys-(3MeBn)-Pro-Pro-Thr-Gln-Phe-Cys]-OH]			> 1	> 1
CCCC[C@H](NC(=O)CN1CCN(CC(=O)O)CCN(CC(=O)O)CCN(CC(=O)O)CC1)C(=O)N[C@H]1CSCc2cccc(c2)CSC[C@@H](C(=O)N[C@@H](CC(=O)O)C(=O)N[C@@H](Cc2c[nH]cn2)C(=O)N[C@@H](Cc2ccccc2)C(=O)N[C@@H](CCCNC(=N)N)C(=O)N[C@@H](CC(=O)O)C(N)=O)NC(=O)[C@H](Cc2ccccc2)NC(=O)[C@H](CCC(=O)O)NC(=O)[C@H]([C@@H](C)O)NC(=O)[C@@H]2CCCN2C(=O)[C@@H]2CCCN2C1=O [3BP-3088, DOTA-Nle-[Cys(3MeBn)-Pro-Pro-Thr-Glu-Phe-Cys]-Asp-His-Phe-Arg-Asp-NH2] ({DOTA}-[Nle]CPPTEFCDHFRD-NH2; linker 2-8 via mXylylene)	0.1 to 0.794	0.1 to 0.794		
CCCC[C@H](NC(=O)CCC(=O)NCCCOCCOCCOCCCNC(=O)[C@H](CCC(=O)NC[C@H](O)[C@@H](O)[C@H](O)[C@H](O)CO)NC(=O)[C@H](CCC(=O)NC[C@H](O)[C@@H](O)[C@H](O)[C@H](O)CO)NC(=O)C(CNCCN)CNCCN)C(=O)N[C@H]1CSCc2cccc(c2)CSC[C@@H](C(=O)O)NC(=O)[C@H](Cc2ccccc2)NC(=O)[C@H](CCC(=O)O)NC(=O)[C@H]([C@@H](C)O)NC(=O)[C@@H]2CCCN2C(=O)[C@@H]2CCCN2C1=O [3BP-4266, N4Ac-Glu(AGLU)-Glu(AGLU)-Ttds-Nle-[Cys-(3MeBn)-Pro-Pro-Thr-Glu-Phe-Cys]-OH]			0.01 to 0.0794	0.01 to 0.0794
CCCCCC(=O)N[C@H]1CSCc2cc(cc(CN3CCN(C(=O)CN4CCN5CCN6CCN(CC4)CC(=O)[O][Eu]([O]C(=O)C6)[O]C(=O)C5)CC3)c2)CSC[C@@H](C(=O)N[C@@H](CC(=O)O)C(N)=O)NC(=O)[C@H](Cc2ccccc2)NC(=O)[C@H](CCC(N)=O)NC(=O)[C@H]([C@@H](C)O)NC(=O)[C@@H]2CCCN2C(=O)[C@@H]2CCCN2C1 [3BP-3661, Europium-Complex of Hex-[Cys(tMeBn(DOTA-PP))-Pro-Pro-Thr-Gln-Phe-Cys]-Asp-NH2]			< 0.01	< 0.01
CCCCCC(=O)N[C@H]1CSCc2cc(CSCCN)cc(c2)CSC[C@@H](C(=O)N[C@@H](CC(=O)O)C(N)=O)NC(=O)[C@H](Cc2ccccc2)NC(=O)[C@H](CCC(N)=O)NC(=O)[C@H]([C@@H](C)O)NC(=O)[C@@H]2CCCN2C(=O)[C@@H]2CCCN2C1=O [3BP-3981, Hex-[Cys-(tMeBn(H-AET))-Pro-Pro-Thr-Gln-Phe-Cys]-Asp-NH2] (Hexanoyl-CPPTQFCD-NH2; linker 1-7 via X25)			0.01 to 0.0794	< 0.01
CCCCCC(=O)N[C@H]1CSCc2cc(CSCCNC(=O)c3ccc(NN)nc3)cc(c2)CSC[C@@H](C(=O)O)NC(=O)[C@H](Cc2ccccc2)NC(=O)[C@H](CCC(N)=O)NC(=O)[C@H]([C@@H](C)O)NC(=O)[C@@H]2CCCN2C(=O)[C@@H]2CCCN2C1=O [3BP-4342, Hex-[Cys-(tMeBn(H-HYNIC-AET))-Pro-Pro-Thr-Gln-Phe-Cys]-OH]			0.01 to 0.0794	< 0.01
CCCCCC(=O)N[C@H]1CSCc2cc(CSCCNC(=O)CCOCCOCCOCCOCCOCCOCCNC(=O)CN(CCN(CCN(CC(=O)O)CC(=O)O)CC(=O)O)CC(=O)O)cc(c2)CSC[C@@H](C(=O)O)NC(=O)[C@H](Cc2ccccc2)NC(=O)[C@H](CCC(N)=O)NC(=O)[C@H]([C@@H](C)O)NC(=O)[C@@H]2CCCN2C(=O)[C@@H]2CCCN2C1=O [3BP-4353, Hex-[Cys-(tMeBn(DTPA2-PEG6-AET))-Pro-Pro-Thr-Gln-Phe-Cys]-OH]			0.01 to 0.0794	0.01 to 0.0794
CCCC[C@H](NC(=O)CCC(=O)NCCCOCCOCCOCCCNC(=O)CN(CCN(CC(=O)O)CC(=O)O)CCN(CC(=O)O)CC(=O)O)C(=O)N[C@H]1CSCc2cccc(c2)CSC[C@@H](C(=O)O)NC(=O)[C@H](Cc2ccccc2)NC(=O)[C@H](CCC(=O)O)NC(=O)[C@H]([C@@H](C)O)NC(=O)[C@@H]2CCCN2C(=O)[C@@H]2CCCN2C1=O [3BP-4229, DTPA-Ttds-Nle-[Cys-(3MeBn)-Pro-Pro-Thr-Glu-Phe-Cys]-OH] ({X35-Suc}-[Nle]CPPTEFC-OH; linker 2-8 via mXylylene)			0.1 to 0.794	0.01 to 0.0794
CCCCCC(=O)N[C@H]1CSCc2cc(CSCCNC(=O)CN3CCN4CCN5CCN(CC3)CC(=O)[O][Eu]([O]C(=O)C4)[O]C(=O)C5)cc(c2)CSC[C@@H](C(=O)O)NC(=O)[C@H](Cc2ccccc2)NC(=O)[C@H](CCC(N)=O)NC(=O)[C@H]([C@@H](C)O)NC(=O)[C@@H]2CCCN2C(=O)[C@@H]2CCCN2C1 [3BP-3662, Europium-Complex of Hex-[Cys(tMeBn(DOTA-AET))-Pro-Pro-Thr-Gln-Phe-Cys]-OH]			< 0.01	< 0.01
CCCCCC(=O)N[C@H]1CSCc2cccc(c2)CSC[C@@H](C(=O)O)NC(=O)[C@H](Cc2ccccc2)NC(=O)[C@H](CCC(N)=O)NC(=O)[C@H]([C@@H](C)O)NC(=O)[C@@H]2CCCN2C(=O)[C@@H]2CCCN2C1=O [3BP-4186, Hex-[Cys-(3MeBn)-Pro-Pro-Thr-Gln-Phe-Cys]-OH]			0.01 to 0.0794	0.01 to 0.0794
CSCC[C@H](NC(C)=O)C(=O)N[C@H]1CSCc2cccc(c2)CSC[C@@H](C(=O)N[C@@H](CC(=O)O)C(=O)N[C@@H](Cc2c[nH]cn2)C(=O)N[C@@H](Cc2ccccc2)C(=O)N[C@@H](CCCNC(=N)N)C(=O)N[C@@H](CC(=O)O)C(N)=O)NC(=O)[C@H](Cc2ccccc2)NC(=O)[C@H](CCC(=O)O)NC(=O)[C@H]([C@@H](C)O)NC(=O)[C@@H]2CCCN2C(=O)[C@H]2CCCN2C1=O [3BP-3176, Ac-Met-[Cys(3MeBn)-pro-Pro-Thr-Glu-Phe-Cys]-Asp-His-Phe-Arg-Asp-NH2] (Ac-MC[dP]PTEFCDHFRD-NH2; linker 2-8 via mXylylene)	0.1 to 0.794	0.1 to 0.794		
CCCCCC(=O)N[C@H]1CSCc2cc(CSCCNC(=O)CCOCCOCCOCCOCCOCCOCCNC(=O)[C@H](CO)NC(=O)[C@H](CO)NC(=O)[C@H](CO)NC(=O)CS)cc(c2)CSC[C@@H](C(=O)O)NC(=O)[C@H](Cc2ccccc2)NC(=O)[C@H](CCC(N)=O)NC(=O)[C@H]([C@@H](C)O)NC(=O)[C@@H]2CCCN2C(=O)[C@@H]2CCCN2C1=O [3BP-4308, Hex-[Cys-(tMeBn(H-SAc-Ser-Ser-Ser-Ttds-AET))-Pro-Pro-Thr-Gln-Phe-Cys]-OH]			0.01 to 0.0794	0.01 to 0.0794

More lines, main results first:

IC50 ([1]; WI-38 fibroblasts) [µM]	IC50 (Human recombinant FAP; recombinant human FAP) [µM]	Compound	IC50 [1] [µM]	IC50 (Human recombinant FAP) [µM]
< 0.01	< 0.01	CSCC[C@H](NC(C)=O)C(=O)N[C@H]1CSCc2cccc(c2)CSC[C@@H](C(=O)N[C@@H](CC(=O)O)C(=O)N[C@@H](Cc2c[nH]cn2)C(=O)N[C@@H](Cc2ccccc2)C(=O)N[C@@H](CCCNC(=N)N)C(=O)N[C@@H](CC(=O)O)C(N)=O)NC(=O)[C@H](Cc2ccccc2)NC(=O)[C@H](CCC(=O)O)NC(=O)[C@H]([C@@H](C)O)NC(=O)[C@@H]2CCCN2C(=O)CNC1=O [3BP-3214, Ac-Met-[Cys(3MeBn)-Gly-Pro-Thr-Glu-Phe-Cys]-Asp-His-Phe-Arg-Asp-NH2] (Ac-MCGPTEFCDHFRD-NH2; linker 2-8 via mXylylene)		
< 0.01	< 0.01	CSCC[C@H](NC(C)=O)C(=O)N[C@H]1CSCc2cccc(c2)CSC[C@@H](C(=O)N[C@@H](CC(=O)O)C(=O)N[C@@H](Cc2c[nH]cn2)C(=O)N[C@@H](Cc2cccs2)C(=O)N[C@@H](CCCNC(=N)N)C(=O)N[C@@H](CC(=O)O)C(N)=O)NC(=O)[C@H](Cc2ccccc2)NC(=O)[C@H](CCC(=O)O)NC(=O)[C@H]([C@@H](C)O)NC(=O)[C@@H]2CCCN2C(=O)[C@@H]2CCCN2C1=O [3BP-3193, Ac-Met-[Cys(3MeBn)-Pro-Pro-Thr-Glu-Thi-Cys]-Asp-His-Phe-Arg-Asp-NH2] (Ac-MCPPTEFCDH[2Thi]RD-NH2; linker 2-8 via mXylylene)		
> 1	> 1	CCCCCC(=O)N[C@H]1CSCc2cccc(c2)CSC[C@@H](C(N)=O)NC(=O)[C@H](Cc2ccccc2)NC(=O)[C@H](C)NC(=O)[C@H]([C@@H](C)O)NC(=O)[C@@H]2CCCN2C(=O)[C@@H]2CCCN2C1=O [3BP-3348, Hex-[Cys(3MeBn)-Pro-Pro-Thr-Ala-Phe-Cys]-NH2] (Hexanoyl-CPPTAFC-NH2; linker 1-7 via mXylylene)		
